Drawing on US6596036B2, “Method for the production of a dye preparation based on madder root” (Coöperatie Rubia U.A., priority 2000, dated 2003), this text covers solubility in water and mutagenicity for two compounds.

Data set [1] in a line: solubility in water (statement in Example 3). Format: physicochemical. Conditions: stated to explain the reaction speed in the madder root extraction mixture. As to the method:
After analysis of the reaction mixture it follows that within 60 minutes all LP is converted into LUC. After the reaction vessel is opened, LUC is converted into NOR, a step which takes 6 hours. When oxygen is present LUC can not be detected, which means that its conversion is much faster than in the present experimental situation. […] Therefore, it is in general difficult for the enzyme to oxidize the solid LUC to NOR. However, when the reaction is performed under oxygen LUC cannot crystalize, because it is immediately oxidized to NOR.

The conditions of data set [2]: stated as known, no test described; cited from earlier work.

As to `O=C1c2ccccc2C(=O)c2c1cc(O)c(CO)c2O` [LUC, lucidin], the solubility in water entry in data set [1] is “not soluble in water”. Besides, the mutagenicity result in data set [2] is on record as “mutagenic”.

Take `O=Cc1c(O)cc2c(c1O)C(=O)c1ccccc1C2=O` [NOR, nordamnacanthal]: the solubility in water entry in data set [1] was “insoluble in water”.
